Measured values: patent publication US9206199B2, “Inhibitors of the renal outer medullary potassium channel” (Merck Sharp & Dohme Corp., priority 2011, dated 2015)
Like-named read-outs stand apart in the source and are kept apart here.

Experiments:
hROMK (hKir1.1) = hROMK (hKir1.1) (Homo sapiens (Human), UniProt P48048); assay: Thallium Flux Assay; format: cell-based
Description: At >80% confluency, aspirate the media from the flask and rinse with 10 mL Calcium/Magnesium-free PBS. […] To dislodge the cell, gently bang the side of the flask with your hand. Triturate the cells completely and then transfer the cells to 25 mL complete media. Centrifuge at 1,500 rpm for 6 min followed by resuspension in complete growth media and determine cell concentration. […] Under ideal growth conditions and appropriate tissue culture practices, this cell line is stable for 40-45 passages. FluxOR Kit Components (Invitrogen F10017) • FluxOR™ Reagent (Component A) • FluxOR™ Assay Buffer (Component B)—10× Concentrate • PowerLoad™ Concentrate (Component C)—100× Concentrate • Probenecid (Component D)—Lyophilized sample is kept at −20° C. Water soluble, 100× after solubilization in 1 mL water. […] Store at 4° C. • Thallium sulfate (Tl2SO4) Concentrate (Component G)—50 mM in water. […]
The fluorescence intensity of wells containing 3 μM of a standard control ROMK inhibitor of the present invention is used to define the ROMK-sensitive component of thallium flux. Fluorescence in the presence of test compounds is normalized to control values to provide % fluorescence change.

Kir1.1 (ROMK1) = Kir1.1 (ROMK1) (Homo sapiens (Human), UniProt P48048); assay: Electrophysiology Assay (IonWorks Quattro whole cell voltage clamp)
Sequence of Kir1.1 (ROMK1) (P48048 whole entry): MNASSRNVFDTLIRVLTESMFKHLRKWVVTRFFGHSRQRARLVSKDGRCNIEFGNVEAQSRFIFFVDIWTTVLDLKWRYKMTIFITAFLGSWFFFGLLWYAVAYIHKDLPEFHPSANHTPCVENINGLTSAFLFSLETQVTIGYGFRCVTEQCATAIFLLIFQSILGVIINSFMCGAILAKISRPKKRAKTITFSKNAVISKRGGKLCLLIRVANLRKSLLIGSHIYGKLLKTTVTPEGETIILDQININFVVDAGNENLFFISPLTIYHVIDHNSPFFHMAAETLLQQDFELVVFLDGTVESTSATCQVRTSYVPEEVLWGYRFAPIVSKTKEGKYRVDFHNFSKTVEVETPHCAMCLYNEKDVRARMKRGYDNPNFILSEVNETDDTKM
Description: Chinese hamster ovary cells stably expressing Kir1.1 channels were maintained in T-75 flasks in cell culture media in a humidified 10% CO2 incubator at 37° C. Prior to an experiment, Kir1.1 expression was induced by overnight incubation with 1 mM sodium butyrate. […] After centrifugation, the cell pellet was resuspended in approximately 4.0 mL of bath solution and placed in the IonWorks instrument. The intracellular solution consisted of (in mM): 80 K gluconate, 40 KCl, 20 KF, 3.2 MgCl2, 3 EGTA, 5 Hepes, pH 7.4. Electrical access to the cytoplasm was achieved by perforation in 0.13 mg/mL amphotericin B for 4 min. […] Voltage protocols and current recordings were performed using the IonWorks HT software/hardware system. Currents were sampled at 1 kHz. No correction for liquid junction potentials was used. The test pulse, consisting of a 100 ms step to 0 mV from a holding potential of −70 mV, followed by a 100 ms voltage ramp from −70 mV to +70 mV, was applied before and after a 6 min compound incubation period. Test compounds were prepared by diluting DMSO stock solutions into the bath solution at 3× the final concentration and placed in the instrument in 96-well polypropylene plates. Current amplitudes were measured using the IonWorks software.

Sequence of hROMK (hKir1.1) (P48048 whole entry): as above

**Q.** With `Cc1nc(-n2cnnn2)ccc1CC(=O)N1CCN2C[C@H](c3ccc(F)c(C#N)c3F)OC[C@@H]2C1` [Example 89, 2,6-difluoro-3-[(3S,9aS)-8-{[2-methyl-6-(1H-tetrazol-1-yl)pyridin-3-yl]acetyl}octahydropyrazino[2,1-c][1,4]oxazin-3-yl]benzonitrile] as the compound, how does the IC50 (hROMK (hKir1.1)) read?
**A.** 70 nM

**Q.** How did the IC50 (hROMK (hKir1.1); HEK293 cells stably expressing hROMK (hKir1.1), FLIPR-Tetra, read-out: Thallium Flux IC50) turn out when `N#Cc1cc([C@@H]2CN3CCN(C(=O)Cc4cnc(-n5cnnn5)nc4)C[C@H]3CO2)ccc1F` [Example 142, 2-fluoro-5-[(3R,9aS)-8-{[2-(1H-tetrazol-1-yl)pyrimidin-5-yl]acetyl}octahydropyrazino[2,1-c][1,4]oxazin-3-yl]benzonitrile] was run?
**A.** 100 nM

**Q.** `O=C1OCCc2cc([C@@H]3CN4CCN(C(=O)Cc5ccc(-n6cnnn6)nc5)C[C@H]4CO3)ccc21` [Example 1] was tested. Which IC50 (Kir1.1 (ROMK1)) did it give?
**A.** 60 nM
